# Experimental data reported in US20200230205A1, “COMPOSITIONS AND METHODS FOR TREATING MYELIN DISORDERS” (CASE WESTERN RESERVE UNIVERSITY, priority 2017, published 2020).
# Columns and labels:
# Format in all cases: cell-based, mouse
# [1] = test system: OPC conditioned media protease activity; experiment: Conditioned media protease activity assay (EnzChek, quenched casein); conditions: OPCs treated with 2.5 μM ISP, vs vehicle and SISP
# Procedure: Around 1×10^6 OPCs were plated per well on PLL, 1 μg/mL laminin, and 2 μg/mL aggrecan coated 6-well plates and treated with vehicle, 2.5 μM ISP or SISP for 2 days at 37° C. CM was collected, cell-strained, and placed on ice until assayed. ThermoFisher Protease Assay Kit (E66383, EnzChek, ThermoFisher) was used to assay protease activity. 1× of the EnzChek mixture was mixed 1:1 with the CM from each group and incubated at RT O/N with gentle shaking. 3 replicates were performed for each sample. Samples were analyzed using a spectrophotometer at 502/528 nm excitation and emission to assess cleaved and fluorescing casein. Fluorescence units reported have been blanked with EnzChek and cell culture media mixture.
# [2] = test system: MMP-2; experiment: MMP-2 in OPC conditioned media or lysate (gelatin zymography, western blot)
# Procedure: To assess MMP-2 or 10 in OPC CM or lysates, OPCs were incubated on precoated PLL, aggrecan, and laminin as described above. OPCs were treated with vehicle, 2.5 μM ISP or SISP for 2 days at 37° C. CM was then harvested and concentrated using Milipore Ultracel YM-C centrifugal filter units at max speed (Eppendorf Centrifuge 5415D) for 30 minutes at 4° C. […] of concentrated CM was loaded into each lane. OPC lysates were assessed using western blot techniques described below with […] protein loaded from each group.
# Tissue samples or cerebellar slices or purified OPC cells were homogenized with RIPA lysis buffer and protein concentration was determined by Pierce BCA protein assay kit according to the manufacture instruction (Thermo Fisher). Then, equal amounts of protein were loaded to 15% SDS-PAGE gels, and electrophoretically transferred to PVDF membranes (Millipore). The membranes were blocked in 0.1% TPBS buffer with 5% non-fat milk for 1h at room temperature and probed with indicated primary antibodies overnight at 4° C. and followed by secondary antibody conjugated to horseradish peroxidase (HRP). The following primary antibodies were used: MBP (SMI-99P, Covance, 1:1000), CS-56 (C8035, Sigma, 1:1000), Laminin (L9393, Sigma, 1:1000), GAPDH (AF5718, R and D Systems, 1:1000), MMP-2 (AF1488, R and D Systems, 1:1000), MMP-10 (MAB910, R and D Systems, 1:1000), and […] (sc-47778, Santa Cruz, 1:1000). Enhanced chemiluminescence was performed with a West Pico Kit (Thermo Fisher) and detected by FluorChem E system (ProteinSimple, USA). The density of bands was quantified using ImageJ software (NIH).
# CM was collected from 1×10^6 OPCs incubated on PLL, 1 μg/mL laminin, and 2 μg/mL aggrecan coated 6-well plates. OPCs were treated with vehicle, 2.5 μM ISP or SISP for 2 days at 37° C. […] Following washes with destaining buffer (40% MeOH, 10% Acetic Acid), Zymograms were imaged and the amount of gelatin degradation was assessed using ImageJ in a method described in the western blot section.
# [3] = test system: laminin; experiment: Laminin degradation by OPC conditioned media (spot staining and western blot)
# Procedure: CSPG gradients were prepared as described previously (Tom, V. J., et al. Studies on the Development and Behavior of the Dystrophic Growth Cone, the Hallmark of Regeneration Failure, in an In vitro Model of the Glial Scar and after Spinal Cord Injury.). 24-well glass coverslip were coated with poly-L-lysine and nitrocellulose, and a mixture of 700 μg/mL aggrecan (A1960 Sigma) and 10 μg/mL laminin (11243217001 Sigma) spotted on the coated coverslip. After drying, coated coverslips were then incubated with laminin at 37° C. for 3h. Purified OPCs were plated at a density of 10,000/coverslip and cultured in DMEM/F12 medium containing with N2, PDGF (20 ng/ml), FGF (20 ng/ml), NT-3 (5 ng/ml), CNTF (O1 ng/ml), Glutamine (200 mM). Coverslips were stained with CS-56 (C8035, Sigma, 1:500) and O4 antibodies (Hybridoma Core Cleveland Clinic, 1:10). O4-positive cells crossing the aggrecan border were counted for each spot. For CSPG gradient quantification, 1×10^6 OPCs were plated per well on PLL, 1 μg/mL laminin, and 2 μg/mL aggrecan coated 6-well plates. OPCs treated with vehicle, 2.5 μM ISP, or 2.5 μM SISP for 2 days at 37° C. CM was harvested and incubated with freshly made spots. […] Using ImageJ software (NIH), pixel intensities of the CS-56 or laminin spot rims were quantified using the same ROI. […]
sequence,measurement,setting,value
GRKKRRQRRRCDMAEHMERLKANDSLKLSQEYESI [ISP],protease activity (fluorescence A.U.),[1],increased protease activity
same,"MMP-2 gelatin-degrading activity, zymography","[2]; OPC CM, 2.5 μM ISP vs controls",significantly increased
same,MMP-2 expression in OPC lysates normalized over GAPDH,"[2]; OPC lysates, ISP",decrease in MMP-2 expression
same,"MMP-2 in OPC CM, western blot","[2]; concentrated OPC CM, 2.5 μM ISP",clearly enhanced
same,"laminin portion of the spot, immunostaining",[3]; CM of OPCs treated with 2.5 μM ISP,completely spared
same,laminin immunoblot,"[3]; OPC CM, 2.5 μM ISP, laminin 10 μg/mL",no significant changes
